Converted amounts (≈) assume the structure as drawn.
Tested on: Mycobacterium tuberculosis
Test: Antitubercular activity against Mycobacterium tuberculosis H37Rv ATCC 27294 after 24 hrs by BACTEC radiometric susceptibility assay
Format: functional
Settings: H37Rv ATCC 27294, 24 h

Row | SMILES | MIC
1 | CN[C@@H]1[C@H](O[C@H]2[C@H](O[C@H]3[C@H](O)[C@@H](O)[C@H](N=C(N)N)[C@@H](O)[C@@H]3N=C(N)N)O[C@@H](C)[C@]2(O)C=O)O[C@@H](CO)[C@H](O)[C@H]1O [STREPTOMYCIN] | 2 µg/mL (≈ 3.44 µM)
2 | C=C1CC[C@H]2C(C)(C)CCC[C@]2(C)[C@H]1C/C=C(/C=N/O)C/C=N/O | 500 µg/mL (≈ 1500 µM)
3 | C=C1CC[C@H]2C(C)(C)CCC[C@]2(C)[C@H]1C/C=C(\CCOC(C)=O)COC(C)=O | > 1000 µg/mL
4 | C=C1CC[C@H]2C(C)(C)CCC[C@]2(C)[C@H]1C/C=C(/C=O)CC=O | 500 µg/mL (≈ 1650 µM)
5 | C=C1CC[C@H]2C(C)(C)CCC[C@]2(C)[C@H]1C/C=C(/CO)CCO | 250 µg/mL (≈ 816 µM)
6 | CO[C@H]1/C=C/O[C@@]2(C)Oc3c(C)c(O)c4c(O)c(c(/C=N/N5CCN(C)CC5)c(O)c4c3C2=O)NC(=O)/C(C)=C\C=C\[C@H](C)[C@H](O)[C@@H](C)[C@@H](O)[C@@H](C)[C@H](OC(C)=O)[C@@H]1C [RIFAMPIN] | 2 µg/mL (≈ 2.43 µM)

Reference: ChEMBL document CHEMBL1240440, “A bioactive labdane diterpenoid from Curcuma amada and its semisynthetic analogues as antitubercular agents” (2010)
